Here are results for 8 compounds from PubChem BioAssay (NCI).

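Five concentrations, 48 hours, 96-well plates. GI50 marks 50% less growth. TGI denotes the concentration required for complete inhibition of growth.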

What all share (test): NCI anticancer screen, dose series, 48 h
Test [1] concerns SN12C renal.
Test [2] deals with KM12 colon.
Test [3] has as its system SF-268 CNS.
Test [4] relates to MOLT-4 leukemia.
Test [5] has as its system NCI-H226 lung.
For test [6], the system named is HL-60(TB) leukemia.
For test [7], the system named is T-47D breast.
For test [8], the system named is UACC-257 melanoma.
Test [9] concerns HT29 colon.
The test system of test [10] is MDA-MB-231 breast.

`N#C/C(=C\c1ccc[nH]1)c1cc(-c2ccc(Cl)cc2)nn1-c1ccccc1`: the GI50 in [1] was 5.87 µM; in test [2] it was 2.68 µM; in [3] it was 4.05 µM; in test [4] it was 2.52 µM; in test [5] it was 7.71 µM; in test [6] it was 4.36 µM. Moreover, the GI50 was 1.56 µM in test [7], 10.9 µM in test [8], 3.31 µM in [9] and 5.78 µM in test [10]. Further, the TGI in [1] was above 48 µM; in [2], 11.6 µM; in test [3], 18.3 µM; in test [4] it was 8.23 µM; in test [5], 37.2 µM; in test [6], 29.3 µM. The TGI in test [7] turned out to be 13.1 µM; in test [8] it was 35.8 µM; in test [9], 13 µM; in test [10] it was 33 µM.
Regarding `Nc1ccc(C#Cc2ccccc2C#CCCCCO)cc1`, the GI50 was 6.26 µM in test [1]; 15.9 µM in [2]; 19.9 µM in test [3]; 16.5 µM in test [4]; 17.5 µM in test [5]; 23.4 µM in test [6]. Besides, the GI50 in test [7] was 15.4 µM; in test [8], 18.9 µM; in test [9], 13.3 µM; in [10] it was 14 µM. Also, the TGI came to 20 µM in test [1]; 33.4 µM in test [2]; 40.4 µM in test [3]; 35.1 µM in [4]; 40.5 µM in test [5]; 44 µM in test [6]. The TGI amounted to 30.7 µM in test [7], 33.8 µM in test [8], 26.1 µM in test [9] and 27.5 µM in test [10].
`COC(=O)[C@]1(C)CCC[C@@]2(C)C3=C(CC[C@H]12)C[C@@H](CC(OC(C)=O)OC(C)=O)[C@@H](C)C3`: the GI50 is 9.42 µM in test [1]; 10.1 µM in test [2]; 7.85 µM in [3]; 18.5 µM in test [4]; 11.2 µM in test [5]; 14.4 µM in test [6]. The GI50 was 4.17 µM in test [7], 10.1 µM in [8], 18 µM in test [9] and 8.81 µM in [10]. Besides, the TGI is 20.6 µM in test [1]; 22.6 µM in test [2]; 16.9 µM in test [3]; above 50 µM in test [4]; 31.1 µM in [5]; above 50 µM in test [6]. The TGI in test [7] is 13.7 µM; in test [8], 19.7 µM; in [9], above 50 µM; in test [10], 19.2 µM.
Regarding `COc1cc(OC)c(/C=C/C(=O)c2c(OC)cc(OC)cc2OC)c(OC)c1`, the GI50 in [1] is 1.81 µM; in test [2], 0.469 µM; in [3] it was 1.84 µM; in test [4] it was 1.53 µM; in test [5], 3.41 µM; in test [6] it was 0.637 µM. Also, the GI50 in test [7] was 2.01 µM; in test [8], 3.58 µM; in [9] it was 0.381 µM; in test [10], 1.51 µM. Also, the TGI in [1] was above 74.4 µM; in [2], 2.57 µM; in test [3], 6.96 µM; in test [4], above 100 µM; in test [5], above 100 µM; in [6], 9.44 µM. For the same compound, the TGI in test [7] was above 100 µM; in test [8], above 100 µM; in test [9] it was 2.1 µM; in test [10], 31.1 µM.
For the compound `O=C1C=CC2C3C(=O)N(c4ccccc4)C(=O)C3C1N2Cc1ccccc1` (centres undefined), the GI50 in [1] is 1.64 µM; in test [2] it was 2.56 µM; in test [3], 3.34 µM; in test [4], 1.72 µM; in [6], 1.17 µM; in test [7] it was 4.93 µM. Also, the results for the GI50 in test [8], in test [9] and in [10] were 3.22 µM, 2.07 µM and 5.44 µM, respectively. Also, the TGI was 3.43 µM in [1]; 7.43 µM in test [2]; 8.85 µM in test [3]; 5.42 µM in [4]; 13.8 µM in test [5]; 8.79 µM in test [6]. In addition, the TGI in [7] stood at 18.2 µM; in [8], 8.67 µM; in test [9], 4.47 µM; in test [10], 20.1 µM.
Take `Oc1c(C(Nc2ccccn2)c2ccccc2)ccc2cccnc12` (centres undefined): the TGI in test [1] is 17.4 µM; in [2], above 100 µM; in test [3], 25.3 µM; in [4], above 25.4 µM; in test [5], 7.54 µM; in [6], 6.17 µM. Besides, the TGI in [7] was above 31.6 µM; in test [8] it was above 100 µM; in test [9], above 86.5 µM; in test [10] it was 16.4 µM.
Regarding `CCN1CCN(C(=O)[C@]23CC[C@@H](C)[C@H](C)[C@@H]2C2=CC[C@@H]4[C@@]5(C)CCC(=O)C(C)(C)[C@@H]5CC[C@@]4(C)[C@]2(C)CC3)CC1`, the GI50 in test [1] is 0.776 µM; in test [2] it was 1.03 µM; in [3], 1.77 µM; in test [4], 0.809 µM; in [5], 1.78 µM; in test [6], 0.98 µM. The GI50 in test [7] was 1.33 µM; in test [8], 0.985 µM; in test [9] it was 0.913 µM; in test [10], 0.779 µM. The TGI is 1.48 µM in test [1]; 2.22 µM in test [2]; 6.49 µM in test [3]; 1.99 µM in test [4]; 7.01 µM in [5]; 2.18 µM in test [6]. Further, the TGI was 3.89 µM in [7], 2.19 µM in test [8], 2.05 µM in test [9] and 1.5 µM in test [10].
On to `CCCCCCCCN(CCCCCCCC)CC(O)c1cc(-c2ccccc2)nc2ccc(OC)cc12` (centres undefined), for which the GI50 was 29.7 µM in test [1]; 79.9 µM in test [2]; 28.7 µM in [3]; 23.1 µM in test [4]; above 100 µM in test [5]; 18 µM in [6]. Also, the GI50 in [7] is 25.6 µM; in test [8] it was above 100 µM; in test [9] it was 18.3 µM; in test [10] it was 11.1 µM. For the same compound, the TGI in [1] was above 100 µM; in test [2] it was above 100 µM; in test [3], above 100 µM; in test [4], above 100 µM; in [5] it was above 100 µM; in test [6], 52.2 µM. The TGI in test [7], in test [8], in [9] and in test [10] was above 100 µM each time.
